Assay results from patent US11179363B2, “Non-steroidal selective glucocorticoid receptor agonistic modulators (SEGRAMs) and uses thereof” (ASSOCIATION POUR LA RECHERCHE À L'IGBMC (ARI), priority 2017, dated 2021).

Columns and labels:
corneal epithelial cells = conditions: in vitro; cited from earlier work
[1] = biological target: T1, glucocorticoid receptor (GR) (Mus musculus, UniProt P06537); assay: In vivo transcriptional analysis (q-RT-PCR) of the three GR functions in mouse ears; parameters: species or system Balb/C mice; conditions: topical 18 hours, 1 nmole/cm^2
T1 construct: RNA transcripts were then extracted from mouse ears; from tissue; host or cells: ear skin of Balb/C mice (in vivo topical treatment)
T1 sequence (P06537 1-792): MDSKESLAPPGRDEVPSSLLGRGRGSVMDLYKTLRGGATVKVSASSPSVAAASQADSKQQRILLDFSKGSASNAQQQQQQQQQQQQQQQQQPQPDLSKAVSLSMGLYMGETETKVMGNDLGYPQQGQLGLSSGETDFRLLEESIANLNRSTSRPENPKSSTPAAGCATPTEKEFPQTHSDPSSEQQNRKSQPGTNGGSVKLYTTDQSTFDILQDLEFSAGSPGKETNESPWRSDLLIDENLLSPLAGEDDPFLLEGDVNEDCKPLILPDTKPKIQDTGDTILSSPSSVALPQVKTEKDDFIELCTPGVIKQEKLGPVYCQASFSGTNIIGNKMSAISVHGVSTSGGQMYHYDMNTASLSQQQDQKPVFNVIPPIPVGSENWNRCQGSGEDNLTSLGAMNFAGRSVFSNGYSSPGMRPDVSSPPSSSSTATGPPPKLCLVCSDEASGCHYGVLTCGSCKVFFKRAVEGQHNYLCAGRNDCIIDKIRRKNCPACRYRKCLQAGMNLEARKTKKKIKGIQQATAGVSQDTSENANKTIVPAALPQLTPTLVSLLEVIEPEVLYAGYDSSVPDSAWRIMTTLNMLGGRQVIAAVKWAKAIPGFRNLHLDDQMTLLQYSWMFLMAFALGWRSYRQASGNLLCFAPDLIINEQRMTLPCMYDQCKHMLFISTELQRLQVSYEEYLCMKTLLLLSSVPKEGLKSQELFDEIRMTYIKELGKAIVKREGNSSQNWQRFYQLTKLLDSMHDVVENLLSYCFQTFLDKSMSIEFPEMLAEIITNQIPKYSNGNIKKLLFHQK
Method: RNA transcripts were then extracted from mouse ears and the transcripts of 4 genes were analyzed by q-RT-PCR: • (i) the directly GR-transactivated gene of the mTOR inhibitor REDD1, • (ii) the GR-directly transrepressed gene of keratin 5 (K5) and • (iii) the GR-indirectly “tethered” transrepressed genes of interleukin-1β (IL-1β) and interleukin-6 (IL-6), both being activated in presence of 12-O-tetradecanoylphorbol-13-acetate (TPA). Results

[2] = system: experimental models of dry eye and postoperative inflammation; conditions: in vivo, cited from earlier work

GR functions induced (direct transactivation, direct transrepression, indirect tethered transrepression) [1]: induces all three GR functions
SMILES: Cc1ccc2c(NC[C@](O)(CC(C)(C)c3cc(F)cc4c3OCC4)C(F)(F)F)cccc2n1 [Mapracorat]
anti-inflammatory action in corneal epithelial cells challenged with osmotic stress (corneal epithelial cells): act as an anti-inflammatory agent | side effects in intraocular pressure and body weight ([2]; vs dexamethasone): reduced side effects | anti-inflammatory activity vs dexamethasone [2]: comparable
